Entries after “also recorded” stand apart in the source; their conditions may differ.
Tests used:
[1] = system: SARS-CoV-2; type: cell-based
[2] = system: SARS-CoV-2; type: cell-based; remark: listed apart in the source
[3] = system: Vero cells

With `CCN(CCO)CCCC(C)Nc1ccnc2cc(Cl)ccc12` (centres unmarked) [Hydroxychloroquine, reference compound] the “Rescue of CPE” value [1] was ~ 90% and the “Reduction of viral titre” value [2] was 10 fold.

For `CCC(CC)COC(=O)[C@H](C)N[P@](=O)(OC[C@H]1O[C@@](C#N)(c2ccc3c(N)ncnn23)[C@H](O)[C@@H]1O)Oc1ccccc1` [Remdesivir, reference compound], the “Reversal of SARS-CoV-2 induced CPE” value [1] was ~ 90%.

In the case of `CC(c1cccc2ccccc12)N1CCC(C(=O)NCc2cccc(F)c2)CC1` (stereo not drawn) [rac3k], the “Toxicity on Vero cells” value [3] is reported as “no toxicity”, the Cellular toxicity ([3]; African green monkey) is reported as ~25% and the “CPE reduction at lower concentrations” value [1] is reported as “diminished”. The “Effect on SARS-CoV-2-induced CPE” value [1] was “significantly rescued infected cells; also recorded: reduced SARS‐CoV‐2‐induced CPE” and the Remaining cell death [1] was “around 20%”.

Source: article PMC7461020 (The EMBO Journal, 2020)
